From patent US11851695B2, “Preparing novel steviol glycosides by bioconversion” (The Coca-Cola Company, priority 2016, dated 2023)

Assay: Sensory evaluation by a trained panel, single sip protocol
Format: in vivo
Details: mean panel score, 400 ppm in water at 4° C.; for Bitter Aftertaste Intensity / Sweet Linger Intensity: 1 minute after tasting; for Overall Max Bitterness / Overall Max Sweetness: from sip up to 1 minute; for Bitter Intensity In Mouth: maximum bitterness in mouth during 5 seconds; for Sweet Intensity In Mouth: maximum sweetness in mouth during 5 seconds
Method: The sensory profiles of CC-00326, CC-00342 and CC-00345 were compared to rebaudioside M.
A trained panel evaluated the various samples. Samples were evaluated using a single sip protocol as follows: • Samples were served at approximately 4° C. • Panelists were instructed to take 1 sip of the sample, hold in mouth for 5 seconds, expectorate, and rate the given attributes • A 5 minute break was placed between each sample and panelists were instructed to cleanse their palates with at least 1 bite of unsalted cracker and 2 sips of filtered water • Due to limited sample quantity panelists were given 7 mL aliquots of each sample • Samples were randomized within each session for each panelist • All samples were presented in replicate in each session
Samples were evaluated for the following: • Sweet taste intensity: maximum level of sweetness in mouth during 5 seconds • Bitter taste intensity: maximum level of bitterness in mouth during 5 seconds • Overall maximum sweet intensity: maximum sweet intensity experienced from the time the sip is taken up to 1 minute • Overall maximum bitter intensity: […] experienced from the time the sip is taken up to 1 minute • Sweet linger intensity: sweet intensity 1 minute after tasting the sample • Bitter aftertaste intensity: bitter intensity 1 minute after tasting the sample
Data was analyzed with an ANOVA, with Sample as fixed effects and Panelist and interaction as random effects was used to determine significance between the samples for each attribute at the 95% Confidence Level, two-tailed. Fishers LSD was used to determine significant differences between mean scores.
The sensory profile of (i) 400 ppm CC-00326 was compared to (ii) 400 ppm Reb M 80% (rebaudioside M content 80% by weight on a dry basis). Both samples (i) and (ii) were formulated in a water matrix at 4° C.
The sensory profile of (i) 400 ppm CC-00342 was compared to (ii) 400 ppm Reb M 95% (rebaudioside M content 95% by weight on a dry basis). Both samples (i) and (ii) were formulated in a water matrix at 4° C.
The sensory profile of (i) 400 ppm CC-00345 was compared to (ii) 400 ppm Reb M 95% (rebaudioside M content 95% by weight on a dry basis). Both samples (i) and (ii) were formulated in a water matrix at 4° C.

[1] = Table 1 (CC-00326 vs Reb M 80%)
[2] = Table 2 (CC-00342 vs Reb M 95%)
[3] = Table 3 (CC-00345 vs Reb M 95%)
[4] = Table 3 (CC-00345 vs Reb M 95%), p = 0.08 at the 90% CL

SMILES	Bitter Aftertaste Intensity [1] [A]	Sweet Linger Intensity [1] [A]	Overall Max Bitterness [1]	Overall Max Sweetness [1] [A]	Bitter Intensity In Mouth [1]	Sweet Intensity In Mouth [1]	Bitter Aftertaste Intensity [2]	Sweet Linger Intensity [2] [A]	Overall Max Bitterness [2]	Overall Max Sweetness [2] [A]	Bitter Intensity In Mouth [2]	Sweet Intensity In Mouth [2] [A]	Bitter Aftertaste Intensity [3] [A]	Sweet Linger Intensity [3] [A]	Overall Max Sweetness [3] [A]	Overall Max Bitterness [4] [A]	Bitter Intensity In Mouth [3] [A]	Sweet Intensity In Mouth [3] [A]
C=C1C[C@@]23CCC4[C@](C)(C(=O)OC5OC(COC6OC(CO)C(O)C(O)C6O)C(O)C(O)C5O)CCC[C@@]4(C)[C@@H]2CCC1(OC1OC(CO)C(O)C(OC2OC(CO)C(O)C(O)C2O)C1OC1OC(CO)C(O)C(O)C1O)C3 (stereo partly drawn) [CC-00326, 13-[(2-O-β-D-glucopyranosyl-3-O-β-D-glucopyranosyl-β-D-glucopyranosyl)oxy] ent-kaur-16-en-19-oic acid-[(6-O-α-D-glucopyranosyl-β-D-glucopyranosyl) ester]]	0.9	3.9	1.6 B	7.9	0.8 B	6.9 B												
C=C1C[C@@]23CCC4[C@](C)(C(=O)OC5OC(COC6OC(CO)C(O)C(O)C6O)C(O)C(O)C5OC5OC(CO)C(O)C(O)C5O)CCC[C@@]4(C)[C@@H]2CCC1(OC1OC(CO)C(O)C(OC2OC(CO)C(O)C(O)C2O)C1OC1OC(CO)C(O)C(O)C1O)C3 (stereo partly drawn) [CC-00342]							1.0	3.8	2.0	8.1	1.2	6.7						
C=C1C[C@@]23CCC4[C@](C)(C(=O)OC5OC(COC6OC(CO)C(O)C(O)C6O)C(O)C(OC6OC(CO)C(O)C(O)C6O)C5OC5OC(CO)C(O)C(O)C5O)CCC[C@@]4(C)[C@@H]2CCC1(OC1OC(CO)C(O)C(OC2OC(CO)C(O)C(O)C2O)C1OC1OC(CO)C(O)C(O)C1O)C3 (stereo partly drawn) [CC-00345]													1.8	3.9	7.2	2.2	1.3	6.6
C=C1C[C@@]23CC[C@H]4[C@@](C)(CCC[C@@]4(C)C(=O)O[C@@H]4O[C@H](CO)[C@@H](O)[C@H](O[C@@H]5O[C@H](CO)[C@@H](O)[C@H](O)[C@H]5O)[C@H]4O[C@@H]4O[C@H](CO)[C@@H](O)[C@H](O)[C@H]4O)[C@@H]2CC[C@]1(O[C@@H]1O[C@H](CO)[C@@H](O)[C@H](O[C@@H]2O[C@H](CO)[C@@H](O)[C@H](O)[C@H]2O)[C@H]1O[C@@H]1O[C@H](CO)[C@@H](O)[C@H](O)[C@H]1O)C3 [Reb M 80%, rebaudioside M]	1.1	4.3	2.3 A	9.0	1.6 A	8.3 A												
C=C1C[C@@]23CC[C@H]4[C@@](C)(CCC[C@@]4(C)C(=O)O[C@@H]4O[C@H](CO)[C@@H](O)[C@H](O[C@@H]5O[C@H](CO)[C@@H](O)[C@H](O)[C@H]5O)[C@H]4O[C@@H]4O[C@H](CO)[C@@H](O)[C@H](O)[C@H]4O)[C@@H]2CC[C@]1(O[C@@H]1O[C@H](CO)[C@@H](O)[C@H](O[C@@H]2O[C@H](CO)[C@@H](O)[C@H](O)[C@H]2O)[C@H]1O[C@@H]1O[C@H](CO)[C@@H](O)[C@H](O)[C@H]1O)C3 [Reb M 95%, rebaudioside M]							1.0	4.5	2.0	8.5	1.1	7.0	1.3	3.6	7.4	1.5	1.3	7.1
